Measured values taken from patent US5763431A, “Method for regulating neuropeptide hormone secretion” (priority 1996, dated 1998).
Where “and” joins values, the source holds several entries; their conditions need not be identical. Identical values can stand only once. Entries after “also recorded” stand apart in the source; their conditions may differ.

Key:
[1] = Oral contraceptive containing neuroactive steroid in premenopausal women (Example 3); assay type: in vivo, human; details: progesterone containing oral contraceptive with neuroactive steroid, two years; expected
Description: An experiment is run with a study group of premenopausal women. Half of the group is placed on a progesterone containing oral contraceptive which also contains a neuroactive steroid such as allepregnanolone. The other half of the study group is given the same oral contraceptive but without neuroactive steroid. The study is run for two years and the group is regularly evaluated for its cardiovascular status.

[2] = system: Posterior Pituitary GABAA Receptor; assay: Desensitization of the GABAA receptor during sustained GABA application, whole-terminal recordings; assay type: cell-based; design: Time constant of desensitization, GABA with steroid: dose or concentration left out as unconfirmed; details: for Desensitization Time-Constant Ratio: (GABA+steroid)/GABA, geometric mean, allopregnanolone 100 nM, estradiol-17β 100 nM; for Time constant of desensitization, GABA with steroid: sustained application of GABA in the presence of steroid, same terminals as controls
Description: FIGS. 3A and 3B are whole terminal recordings showing the GABA desensitizing effect of certain neuroactive steroids on the GABAA receptor. […] 3B illustrates the effect of allopregnanolone.
Sustained application of GABA desensitized the receptor with a time constant of 9.5±0.5 sec (n=3). […] Similar results were obtained with allopregnanolone; the average time constant for desensitization was 9.1±1.8 sec with GABA alone and 10.2±1.7 sec (n=3) with GABA and allopregnanolone.
(§1) Measurements were made in nerve terminals for responses to GABA alone or GABA+steroid. The ratios were computed as (GABA+steroid)/GABA, and the geometric means were computed for the indicated number of ratios. The * indicates statistical significance at the level of P<0.05. […] The single-channel activity was determined from Po using all-points histograms such as those shown in FIGS. 4B and 4D, as described in METHODS. The GABA concentration was […] for the first two columns and 1 mM for the last column.

[3] = Treatment and prevention of hypertension in borderline hypertensive patients (Example 2); assay type: in vivo, human; details: daily high physiological dosage, after one year, versus placebo; expected
Description: An experiment is run with study group of patients who are borderline hypertensive. Half of the group is given daily a high physiological dosage of allepregnanolone. The remaining patients are placed on placebo.

[4] = system: Posterior Pituitary GABAA Receptor; assay: Whole-terminal patch clamp recording of GABA responses in posterior pituitary nerve terminals; assay type: cell-based; details: for Effect on GABA-activated Cl- current / GABAA receptor responses of nerve terminals (in words): posterior pituitary nerve terminals
Method: as §1

[5] = system: Posterior Pituitary GABAA Receptor; assay: GABA-gated Cl- single-channel currents in outside-out patches excised from posterior pituitary nerve terminals; assay type: cell-based
Method: as §1

## CC(=O)[C@H]1CC[C@H]2[C@@H]3CC[C@H]4C[C@H](O)CC[C@]4(C)[C@H]3CC[C@]12C [Allopregnanolone, 3α-hydroxy-5α-pregnan-20-one]
[1]
  Cardiovascular status compared to control: significantly better cardiovascular status compared to control
[2]
  Desensitization Time-Constant Ratio: 1.14
  Time constant of desensitization, GABA with steroid: 10.2 ± 1.7 s
[3]
  Blood pressure relative to control: significantly lower blood pressure relative to control
[4]
  Effect on GABA-activated Cl- current / GABAA receptor responses of nerve terminals (in words): potentiated; also recorded: strongly enhanced
[5]
  Effect on GABA-activated single-channel activity (in words): more channel activity than GABA alone; also recorded: clearly increased

## CC(=O)[C@H]1CC[C@H]2[C@@H]3CC[C@H]4C[C@H](O)CC[C@]4(C)[C@H]3C(=O)C[C@]12C [Alphaxalone, alphaxalone]
[2]
  Time constant of desensitization, GABA with steroid: 8.9 ± 0.5 s

## C[C@]12CC[C@@H]3c4ccc(O)cc4CC[C@H]3[C@@H]1CC[C@@H]2O [Estradiol-17β]
[2]
  Desensitization Time-Constant Ratio: 0.90
  Time constant of desensitization, GABA with steroid: 7.9 ± 1.9 s
[2]; sustained GABA application
  Effect on rate of desensitization (in words): failed to alter the rate of desensitization
[4]; estradiol-17β 100 nM, n=6
  GABA responses as % of controls: 78%
[4]
  Effect on GABA-activated Cl- current / GABAA receptor responses of nerve terminals (in words): weak inhibitory effect
[5]
  Effect on GABA-activated single-channel activity (in words): went down slightly

## NCCCC(=O)O [GABA]
[2]; sustained application of GABA alone (controls of the alphaxalone, allopregnanolone and estradiol-17β experiments, in this order)
  Time constant of desensitization, GABA alone: 9.5 ± 0.5 s and 9.1 ± 1.8 s and 9.2 ± 0.2 s
